Laboratory results published in patent publication US8957063B2, “Amine and ether compounds which modulate the CB2 receptor” (priority 2008, dated 2015).

Each compound was assayed against T1, human CB2R (Homo sapiens, UniProt P34972) (assay: CB2R mediated modulation of cAMP synthesis).
T1 construct: host or cells: CHO cells
Format: cell-based
Procedure: B. CB2R Mediated Modulation of cAMP Synthesis:
Compounds of the invention were evaluated for their CB2 agonist or inverse agonistic activity in accordance with the following experimental method.
CHO cells expressing human CB2R (Euroscreen) were plated at a density of 5000 cells per well in 384 well plates and incubated overnight at 37° C. After removing the media, the cells were treated with test compounds diluted in stimulation buffer containing 1 mM IBMX, 0.25% BSA and 10 uM Forskolin. The assay was incubated for 30 minutes at 37° C. Cells were lysed and the cAMP concentration was measured using DiscoverX-XS cAMP kit, following the manufacturer's protocol. In this setting, agonists will decrease forskolin induced production of cAMP while inverse agonists will further increase forskolin induced production of cAMP. EC50 of agonists were calculated as follows. The maximal amount of cAMP produced by forskolin compared to the level of cAMP inhibited by 1 uM CP55940 is defined as 100%. The EC50 value of each test compound was determined as the concentration at which 50% of the forskolin-stimulated cAMP synthesis was inhibited. Data was analyzed using a four-parameter logistic model. (Model 205 of XLfit 4.0).

T1 sequence (P34972 whole entry): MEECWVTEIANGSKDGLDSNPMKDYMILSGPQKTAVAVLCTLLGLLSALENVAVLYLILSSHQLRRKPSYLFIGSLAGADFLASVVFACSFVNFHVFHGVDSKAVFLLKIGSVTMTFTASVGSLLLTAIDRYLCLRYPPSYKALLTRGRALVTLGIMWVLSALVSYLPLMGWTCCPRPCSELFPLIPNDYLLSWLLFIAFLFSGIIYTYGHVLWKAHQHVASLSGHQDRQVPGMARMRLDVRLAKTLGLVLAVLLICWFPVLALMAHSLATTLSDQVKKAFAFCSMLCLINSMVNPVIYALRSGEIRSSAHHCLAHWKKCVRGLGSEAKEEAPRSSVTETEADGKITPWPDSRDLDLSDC

SMILES	EC50 [nM]
CC(C)(NC1CCOCC1)C(=O)Nc1nc(-c2ccccc2)n[nH]1 [Example 42, 2-Methyl-N-(5-phenyl-2H-1,2,4-triazol-3-yl)-2-(tetrahydro-pyran-4-ylamino)-propionamide]	260
CC(C)(Nc1ccc(C(F)(F)F)cc1)C(=O)Nc1cc(C(C)(C)C)no1 [Example 43, N-(3-tert-Butyl-isoxazol-5-yl)-2-methyl-2-(4-trifluoromethyl-phenylamino)-propionamide]	1.1
CC(C)(Nc1ccc(C(F)(F)F)cn1)C(=O)Nc1cc(C(C)(C)C)no1 [Example 46, N-(3-tert-Butyl-isoxazol-5-yl)-2-methyl-2-(5-trifluoromethyl-pyridin-2-ylamino)-propionamide]	0.78
CC(C)(Nc1ccc(C(F)(F)F)cn1)C(=O)Nc1cc(C(C)(C)C)on1 [Example 47, N-(5-tert-Butyl-isoxazol-3-yl)-2-methyl-2-(5-trifluoromethyl-pyridin-2-ylamino)-propionamide]	20
CN(C(C)(C)C(=O)Nc1cc(C(C)(C)C)on1)S(=O)(=O)c1ccc(Cl)cc1 [Example 48, N-(5-tert-Butyl-isoxazol-3-yl)-2-[(4-chloro-benzenesulfonyl)-methyl-amino]-2-methyl-propionamide]	0.36
CN(C(C)(C)C(=O)Nc1cc(C(C)(C)C)on1)S(=O)(=O)c1ccc(F)cc1 [Example 49, N-(5-tert-Butyl-isoxazol-3-yl)-2-[(4-fluoro-benzenesulfonyl)-methyl-amino]-2-methyl-propionamide]	0.13
CN(C(=O)c1ccc(Cl)cc1)C(C)(C)C(=O)Nc1cc(C(C)(C)C)on1 [Example 50, N-[1-(5-tert-Butyl-isoxazol-3-ylcarbamoyl)-1-methyl-ethyl]-4-chloro-N-methyl-benzamide]	124
CN(C(=O)N1CCS(=O)(=O)CC1)C(C)(C)C(=O)Nc1cc(C(C)(C)C)on1 [Example 51, 1,1-Dioxo-1λ6-thiomorpholine-4-carboxylic acid [1-(5-tert-butyl-isoxazol-3-ylcarbamoyl)-1-methyl-ethyl]-methyl-amide]	39
